Results on four compounds are retold here after US20050220865A1, “Compressed composition comprising magnesium salt” (priority 2004, published 2005).

For series [1] the following is noted: cited from earlier work; for USP 27/NF22 Solubility: USP 27/NF22 solubility term.
A short description of series [2]: Storage stability of USP <711> dissolution profile at 40° C. and 75% relative humidity. The class given is physicochemical. The note with it: FIG. 4; stored at 40° C. and 75% relative humidity up to 2 months; protected from moisture. As to the method:
By “pharmaceutically acceptable storage conditions” is meant storage at 25° C. and 60% relative humidity (RH) in a tight, sealed container-enclosure system. The storage conditions employed herein (40° C. and 75% RH) in evaluating formulations are used in the pharmaceutical industry to conduct accelerated stability testing of formulations such that a period of 2 months under these conditions is generally accepted to equal a period of 1 year under pharmaceutically acceptable storage conditions (25° C. and 60% relative humidity).
(§1) USP 27/NF22 specification for magnesium oxide tablets is not less than 75% (O) of the labeled amount of MgO is dissolved in 45 minutes. Dissolution testing is performed using apparatus II with 900 mL of 0.1 N hydrochloric acid maintained at 37° C. and agitated at 75 rpm. Samples are withdrawn at after 45 minutes of testing. The amount of MgO dissolved is then determined using atomic absorption (AA) spectrophotometry at a wavelength of 285.2 nm using filtered portions of the solution under test, diluted with Dissolution Medium. A standard curve is generated using a magnesium standard solution of known concentration in the same medium.
The initial dissolution profile for each of the prior art and present formulations is determined as described herein. […] At monthly intervals, the dissolution profile of the formulations is determined again. […]

Series [3] can be described thus: Magnesium oxide tablet monograph USP <711> dissolution. As to conditions: FIG. 5; binary mixture of heavy grade magnesium oxide, USP with excipient. The class given is physicochemical. As to the method:
The following drawings are given by way of illustration only, and thus are not intended to limit the scope of the present invention. The USP27/NF22 monograph for magnesium oxide tablets specifies that the dissolution method is to be executed using the general conditions of chapter <711> with 900 mL of 0.1 N hydrochloric acid, a paddle rotation speed of 75 RPM, and a sampling timepoint of 45 minutes.
as §1

Regarding `[F-].[F-].[Mg+2]` [MgF2], in series [1], the “USP 27/NF22 Solubility” value is on record as “Practically Insoluble” and the “Solubility in Neutral Water” value is given as 0.0002 g/100 mL.
As for `[O]=[Mg]` [MgO, magnesium oxide, reference compound], the “dissolution of magnesium from pure magnesium oxide” value in series [2] is “suitable dissolution”. Besides, in series [1], the “USP 27/NF22 Solubility” value is on record as “Practically Insoluble” and the “Solubility in Neutral Water” value was 0.00062 g/100 mL.
For the compound `O=C([O-])CC(O)(CC(=O)[O-])C(=O)[O-].[Na+].[Na+].[Na+]` [sodium citrate], the “influence of excipient on dissolution of magnesium” value in series [3] was “decrease dissolution”.
As for potassium phosphate, the “influence of excipient on dissolution of magnesium” value in series [3] is “decrease dissolution”.
